For the test, the target named is PKB/Akt (Homo sapiens, UniProt P31749). The test is described as follows: Inhibition of PKB/Akt in vitro. Type of test: biochemical. The following applies: PDK1-activated GST-PKB, LRRPRTRSFS peptide, 20 μM ATP; read-out: IC50 range class, inhibition of PKB/Akt in vitro. Here is the method:
The activity as inhibitor of PKB can be determined as follows:
To fully activate PKB, the enzyme is exposed to catalytic amounts of PDK1. GST-PKB (100 ng, Specific Activity: 0.2 nmoles/mg/mins) is incubated for 30 min at room temperature (rt) with purified recombinant GST-PDK1 (1 ng, SA: 2 nmoles/min/mg). The activation is performed as follows: 0.1 μg of GST-PDK1 (0.05 μl) and 10 μg of GST-PKB (0.45 μl) are mixed in a total volume of 0.75 μl containing 15 μM ATP, 3 mM MgCl2, 20 mM Hepes (pH 7.6) for 30 mins at rt. The reaction is subsequently stopped by adding 0.25 μl containing 30% glycerol (w/w) and 0.06 μl of 500 mM EDTA. 100-500 ng (0.01-0.05 μl) activated GST-PKB is incubated in a final volume of 30 μl with 10 μM of the LRRPRTRSFS peptide, 10 mM Mg-acetate, 50 mM MOPS (PH 7.5), 1 mM DTT and 300 μg/ml BSA, 20 μM ATP (0.1 μCi gamma-^33P-ATP). The reaction is carried out for 30 min at rt in the presence of either 1% DMSO or the text compound of the formula I at the required concentration in 1% DMSO. The reaction is terminated by the addition of 20 μl 125 mM EDTA. 30 ill of each sample is spotted onto P81 Whatman and the paper squares processed as described in Ferrari, S. and Thomas, G. (1991) Meth. Enzymol. 200, 159-169. IC50 values are calculated by linear regression analysis of the percentage inhibition of each compound in duplicate.

The values that follow come from patent US7998972B2, “1H-imidazo[4,5-c]quinoline derivatives in the treatment of protein kinase dependent diseases” (Novartis AG, priority 2002, dated 2011).

pIC50: −log10 of the molar value.

PKB/Akt, sequence (P31749 whole entry): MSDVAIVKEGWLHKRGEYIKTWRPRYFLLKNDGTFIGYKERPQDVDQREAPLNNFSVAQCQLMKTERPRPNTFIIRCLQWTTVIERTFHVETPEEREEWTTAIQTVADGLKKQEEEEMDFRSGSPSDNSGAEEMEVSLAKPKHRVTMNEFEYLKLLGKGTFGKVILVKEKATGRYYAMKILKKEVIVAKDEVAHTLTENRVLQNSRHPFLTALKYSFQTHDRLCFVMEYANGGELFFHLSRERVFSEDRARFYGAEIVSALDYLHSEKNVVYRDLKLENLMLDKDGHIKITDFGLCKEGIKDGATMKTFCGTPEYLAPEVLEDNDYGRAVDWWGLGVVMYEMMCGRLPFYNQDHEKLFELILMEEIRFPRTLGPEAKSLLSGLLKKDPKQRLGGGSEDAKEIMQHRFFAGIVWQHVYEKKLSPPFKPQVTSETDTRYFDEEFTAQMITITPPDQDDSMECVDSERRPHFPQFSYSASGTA

Consider `Fc1ccccc1-n1cnc2cnc3ccc(-c4ccccc4)cc3c21` [Example 54, 1-(2-Fluoro-phenyl)-8-phenyl-1H-imidazo[4,5-c]quinoline], for which the pIC50 is 5.70 to 6.00.

`COc1ccc(-c2ccc3ncc4ncn(-c5ccccc5Cl)c4c3c2)cc1` [Example 137, 1-(2-Chloro-phenyl)-8-(4-methoxy-phenyl)-1H-imidazo[4,5-c]quinoline]: the pIC50 is 5.70 to 6.00.
